Where “and” joins values, the source holds several entries; their conditions need not be identical. Identical values can stand only once.
Assays:
[1] = test system: T. reesei CL847; assay: Fed-batch cellulase production by T. reesei CL847 with sugar mixture containing inducing sugar; specific rate of protein production; type: cell-based, Trichoderma reesei; conditions: for specific protein production rate: fed-batch 166 h, 30° C.
Method: After growing cells of T. reesei CL847 (Durand H. et al. (1988a) Classical and molecular genetics applied to Trichoderma reesei for the selection of improved cellulolytic industrial strains. In: FEMS Symposium n° 43: Biochemistry and Genetics of Cellulose Degradation, p. 135-151. Academic Press, London) on glucose in stirred flasks up to the exhaustion of the glucose, cellulase production was carried out using a “fed-batch” process employing a solution the composition of which was as follows: 50 g/L of a mixture of sugars and 15 mL/L of 20% by weight NH3 as described in the publication “A new stoichiometric miniaturization strategy for screening of industrial microbial strains: application to cellulase hyper-producing Trichoderma reesei strains”, Microbial Cell Factories 2012, 11:70.
The mixture of sugars used contained (100−x)% by weight of glucose and x% by weight of inducing sugar:
in the first case (control), the inducing sugar was lactose at a quantity of x=8%
in the second, third and fourth cases, the inducing sugar was sophorose from the hydrolysate obtained in Example 3 which had been supplemented with pure glucose in order to have x=8%, x=0.3% and x=0.03% respectively.
The fed-batch process was carried out for 166 hours with a solution supply flow rate of 0.3 mL/h and at a temperature of 30° C.
Daily samples were taken in order to monitor the concentration of cells and the concentration of proteins. The induction capacity of the mixture of sugars used for the fed-batch process was expressed as the specific rate of protein production (mg of proteins produced per gram of producer cells per hour).

[2] = test system: cellulolytic Trichoderma reesei system; conditions: known from the prior art (Mandels et al. 1962); cited from earlier work
[3] = inducing sugar x=8% by weight of sugar mixture (rest glucose)

Row | Compound | specific protein production rate [1, 3] | inducer of the cellulolytic Trichoderma reesei system [2] | induction relative to the mixture containing lactose at the same concentration ([1]; 8% sophorose versus 8% lactose) | specific protein production rate ([1]; inducing sugar x=0.03% by weight of sugar mixture (rest glucose)) [mg/g/h] | specific protein production rate ([1]; inducing sugar x=0.3% by weight of sugar mixture (rest glucose)) [mg/g/h]
1 | OC[C@H]1O[C@@H](O[C@H]2[C@H](O)[C@@H](O)C(O)O[C@@H]2CO)[C@H](O)[C@@H](O)[C@H]1O (stereo partly drawn) [lactose, reference compound] | 6.4 mg/g/h and ~6 mg/g/h | – | – | – | –
2 | O=C[C@H](O[C@@H]1O[C@H](CO)[C@@H](O)[C@H](O)[C@H]1O)[C@@H](O)[C@H](O)[C@H](O)CO [sophorose, 2-O-β-D-glucopyranosyl-D-glucose] | 12 mg/g/h | very good inducer | approximately twice as high | ~6 | 10.5

— patent US20150336999A1, “PROCESS FOR THE PRODUCTION OF SOPHOROSE STARTING FROM SOPHOROLIPIDS” (IFP ENERGIES NOUVELLES, priority 2012, published 2015)
